Our source for the EC50 and IC50 values is patent US10336762B2 (priority 2017, dated 2019).

One test relates to TNFα. Nature of the test: cells. Type of test: cell-based, human. The settings on record: Homo sapiens, Monocyte, LPS-stimulated human monocytes, TNFα content; read-out: EC50 TNF.
The target in a further test is IRAK4 enzyme (Homo sapiens (Human), UniProt Q9NWZ3). Nature of the test: biochemical. Type of test: biochemical. The conditions noted are these: IRAK4 enzyme, TR-FRET (HTRF), 500 μM ATP.
IRAK4 enzyme, sequence (Q9NWZ3 whole entry): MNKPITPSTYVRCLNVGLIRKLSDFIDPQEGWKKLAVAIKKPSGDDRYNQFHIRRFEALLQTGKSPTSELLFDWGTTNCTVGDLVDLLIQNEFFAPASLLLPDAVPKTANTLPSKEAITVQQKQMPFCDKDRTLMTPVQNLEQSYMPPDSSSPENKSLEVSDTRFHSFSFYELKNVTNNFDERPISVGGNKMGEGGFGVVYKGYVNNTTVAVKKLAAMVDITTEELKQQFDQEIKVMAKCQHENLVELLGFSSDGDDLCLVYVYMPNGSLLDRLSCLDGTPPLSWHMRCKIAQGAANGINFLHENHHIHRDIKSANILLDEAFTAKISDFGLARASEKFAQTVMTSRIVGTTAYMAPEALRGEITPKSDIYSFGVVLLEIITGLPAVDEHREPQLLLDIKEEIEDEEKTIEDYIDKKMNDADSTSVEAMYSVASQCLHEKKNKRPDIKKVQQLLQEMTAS

Protocol for TNFα: IRAK4 Monocyte TNFα Cell Based Assay Procedure:
The cell suspension was then plated at a density of 5,000 cells/well onto black 384 well Greiner clear bottom plates. Plates were pre-spotted with test compounds and serially diluted in DMSO where 200 nL/well were delivered using the Echo 550 acoustic liquid dispenser (Labcyte®) for a final DMSO concentration of 0.5%. Plated cells were treated with compound for 1 hour at 37° C. Cells were then stimulated with 50 pg/ml of LPS (Sigma) excluding outside columns of plate used for unstimulated cell control wells. Cells were incubated for an additional 4 hours at 37° C. Cells were then spun out of the media and 5 μl of sample were taken and analyzed for total TNFα content using the TR-FRET Human TNFα detection system (CisBio). This system utilizes two labeled antibodies (cryptate and XL665) that bind to two different epitopes of the TNFα molecule and produce FRET signal proportional to the concentration of TNFα in the sample. Detection antibodies are mixed 50:50 and 5 μL were dispensed into each well. Plates were covered with clear seals and incubated at room temp overnight. […] Percent of control was calculated as follows: % Control=100×(RatioSample−Ratio0% stimulation)/(Ratio100% Stimulation−Ratio0% Stimulation) where unstimulated cells (0% stimulation) were the negative control and stimulated cells (100% stimulation) were used as the positive control.

For `CC(C)(O)[C@H](F)CNC(=O)c1cnc(-c2ccc3cc(C#N)cnn23)cc1Nc1ccc(-n2cccn2)nc1` [Example 770, (R)-4-((6-(1H-pyrazol-1-yl)pyridin-3-yl)amino)-6-(3-cyanopyrrolo[1,2-b]pyridazin-7-yl)-N-(2-fluoro-3-hydroxy-3-methyl-butyl)nicotinamide], the EC50 in the test with TNFα was 0.05 µM. Also, the IC50 against IRAK4 enzyme is less than 0.001 µM.

Turning to `CC(C)(O)[C@H](F)CNC(=O)c1cnc(-c2ccc3cc(C#N)cnn23)cc1Nc1ccc(-c2nncs2)cc1` [Example 771, (R)-4-((4-(1,3,4-thiadiazol-2-yl)phenyl)amino)-6-(3-cyanopyrrolo[1,2-b]pyridazin-7-yl)-N-(2-fluoro-3-hydroxy-3-methylbutyl)nicotinamide], in the test on TNFα, the EC50 was 0.037 µM. Moreover, the half-maximal inhibitory concentration (IC50) on IRAK4 enzyme is less than 0.001 µM.

As to `CC(C)(O)[C@H](F)CNC(=O)c1cnc(-c2ccc3cc(C#N)cnn23)cc1Nc1ccc(-n2cnnc2)cc1` [Example 772, (R)-4-((4-(4H-1,2,4-triazol-4-yl)phenyl)amino)-6-(3-cyanopyrrolo[1,2-b]pyridazin-7-yl)-N-(2-fluoro-3-hydroxy-3-methylbutyl)nicotinamide], the EC50 in the test on TNFα was found to be 0.014 µM. Moreover, the IC50 against IRAK4 enzyme was less than 0.001 µM.

In the case of `CC(C)(O)[C@H](F)CNC(=O)c1cnc(-c2ccc3cc(C#N)cnn23)cc1Nc1ccc(-c2ccon2)cc1` [Example 773, (R)-6-(3-cyanopyrrolo[1,2-b]pyridazin-7-yl)-N-(2-fluoro-3-hydroxy-3-methylbutyl)-4-((4-(isoxazol-3-yl)phenyl)amino) nicotinamide], in the test on TNFα, the EC50 is 0.043 µM. The midpoint of inhibition against IRAK4 enzyme, the IC50, lay at 0.001 µM.

With `CC(C)(O)[C@H](F)CNC(=O)c1cnc(-c2ccc3cc(C#N)cnn23)cc1Nc1ccc(-c2ccon2)nc1` [Example 775, (R)-6-(3-cyanopyrrolo[1,2-b]pyridazin-7-yl)-N-(2-fluoro-3-hydroxy-3-methylbutyl)-4-((6-(isoxazol-3-yl)pyridin-3-yl)amino)nicotinamide], the EC50 in the test on TNFα amounted to 0.025 µM. In addition, the IC50 against IRAK4 enzyme is less than 0.001 µM.

In the case of `CC(C)(O)[C@H](F)CNC(=O)c1cnc(-c2ccc3cc(C#N)cnn23)cc1N[C@H]1C[C@H](Cn2cncn2)C1` [Example 776, 4-(((1r,3R)-3-((1H-1,2,4-triazol-1-yl)methyl)cyclo-butyl)amino)-6-(3-cyano-pyrrolo[1,2-b]pyridazin-7-yl)-N-((R)-2-fluoro-3-hydroxy-3-methylbutyl) nicotinamide], the EC50 with TNFα came to 0.032 µM. On IRAK4 enzyme, the half-inhibitory concentration (IC50) was 0.001 µM.

For the compound `CC(C)(O)[C@H](F)CNC(=O)c1cnc(-c2ccc3cc(C#N)cnn23)cc1N[C@H]1CC[C@H](c2ccon2)CC1` [Example 777, 6-(3-cyanopyrrolo[1,2-b]pyridazin-7-yl)-N-((R)-2-fluoro-3-hydroxy-3-methylbutyl)-4-(((1r,4R)-4-(isoxazol-3-yl)cyclohexyl)amino)nicotinamide], the EC50 in the test with TNFα came out at 0.015 µM. On IRAK4 enzyme, this compound showed an IC50 of less than 0.001 µM.

Take `CC(C)(O)[C@H](F)CNC(=O)c1cnc(-c2ccc3cc(C#N)cnn23)cc1Nc1ccc(-n2nccn2)nc1` [Example 778, (R)-4-((6-(2H-1,2,3-triazol-2-yl)pyridin-3-yl)amino)-6-(3-cyanopyrrolo[1,2-b]pyridazin-7-yl)-N-(2-fluoro-3-hydroxy-3-methyl-butyl)nicotinamide]: the EC50 with TNFα is 0.051 µM. Besides, on IRAK4 enzyme, the IC50 was less than 0.001 µM.

For the compound `CC(C)(O)[C@H](F)CNC(=O)c1cnc(-c2ccc3cc(C#N)cnn23)cc1N[C@H]1CC[C@H](n2cncn2)CC1` [Example 779, 4-(((1r,4R)-4-(1H-1,2,4-triazol-1-yl)cyclohexyl)amino)-6-(3-cyano-pyrrolo[1,2-b]pyridazin-7-yl)-N-((R)-2-fluoro-3-hydroxy-3-methylbutyl) nicotinamide], in the test with TNFα, the EC50 worked out at 0.028 µM. Also, the IC50 against IRAK4 enzyme is less than 0.001 µM.

For `CC(C)(O)[C@H](F)CNC(=O)c1cnc(-c2ccc3cc(C#N)cnn23)cc1NC12CCC(N3CCOCC3)(CC1)CC2` [Example 780, (R)-6-(3-cyanopyrrolo[1,2-b]pyridazin-7-yl)-N-(2-fluoro-3-hydroxy-3-methylbutyl)-4-((4-morpholinobicyclo[2.2.2]octan-1-yl)amino)nicotinamide], the EC50 in the test with TNFα amounted to 0.038 µM. Moreover, on IRAK4 enzyme, the IC50 was 0.001 µM.

Consider `CC(C)(O)[C@H](F)CNC(=O)c1cnc(-c2ccc3cc(C#N)cnn23)cc1NC1CCC2(CC1)COC2` [Example 781, (R)-4-(2-oxaspiro[3.5]nonan-7-ylamino)-6-(3-cyanopyrrolo[1,2-b]pyridazin-7-yl)-N-(2-fluoro-3-hydroxy-3-methyl-butyl)nicotinamide], for which the EC50 with TNFα was found to be 0.09 µM. Also, the IC50 at IRAK4 enzyme is less than 0.001 µM.

As to `Cn1cnc2cc(Nc3cc(-c4ccc5cc(C#N)cnn45)ncc3C(=O)NC[C@@H](F)C(C)(C)O)cnc21` [Example 782, (R)-6-(3-cyanopyrrolo[1,2-b]pyridazin-7-yl)-N-(2-fluoro-3-hydroxy-3-methylbutyl)-4-((3-methyl-3H-imidazo[4,5-b]pyridin-6-yl)amino)nicotinamide], in the test with TNFα, the EC50 stood at 0.029 µM. Moreover, at IRAK4 enzyme, the IC50 is less than 0.001 µM.

For the compound `CC(C)(O)[C@H](F)CNC(=O)c1cnc(-c2ccc3cc(C#N)cnn23)cc1N[C@H]1C[C@H](Cn2ccnc2)C1` [Example 783, 4-(((1r,3R)-3-((1H-imidazol-1-yl)methyl)cyclo-butyl)amino)-6-(3-cyanopyrrolo[1,2-b]pyridazin-7-yl)-N-((R)-2-fluoro-3-hydroxy-3-methylbutyl)nicotinamide], in the test with TNFα, the EC50 stood at 0.022 µM. The same compound showed an IC50 on IRAK4 enzyme of less than 0.001 µM.

As to `COCc1cncc(Nc2cc(-c3ccc4cc(C#N)cnn34)ncc2C(=O)NC[C@@H](F)C(C)(C)O)c1` [Example 784, (R)-6-(3-cyanopyrrolo[1,2-b]pyridazin-7-yl)-N-(2-fluoro-3-hydroxy-3-methylbutyl)-4-((5-(methoxymethyl)pyridin-3-yl)amino)nicotinamide], the EC50 in the test on TNFα came out at 0.04 µM. Further, at IRAK4 enzyme, the IC50 was less than 0.001 µM.

As to `N#Cc1cnn2c(-c3cc(NC45CCC(O)(CC4)CC5)c(C(=O)NCC(=O)N4CCOCC4)cn3)ccc2c1` [Example 785, 6-(3-cyanopyrrolo[1,2-b]pyridazin-7-yl)-4-((4-hydroxybicyclo[2.2.2]octan-1-yl)amino)-N-(2-morpholino-2-oxoethyl)nicotinamide], the EC50 in the test on TNFα came out at 0.023 µM. At IRAK4 enzyme, this compound displayed an IC50 of less than 0.001 µM.

For the compound `COCCNC(=O)CNC(=O)c1cnc(-c2ccc3cc(C#N)cnn23)cc1NC12CCC(O)(CC1)CC2` [Example 786, 6-(3-cyanopyrrolo[1,2-b]pyridazin-7-yl)-4-((4-hydroxybicyclo[2.2.2]octan-1-yl)amino)-N-(2-((2-methoxyethyl)amino)-2-oxoethyl)nicotinamide], in the test with TNFα, the EC50 stood at 0.323 µM. Besides, the midpoint of inhibition at IRAK4 enzyme, the IC50, lay at 0.002 µM.

In the case of `N#Cc1cnn2c(-c3cc(NC45CCC(O)(CC4)CC5)c(C(=O)NCC(=O)N4CC(F)C4)cn3)ccc2c1` [Example 787, 6-(3-cyanopyrrolo[1,2-b]pyridazin-7-yl)-N-(2-(3-fluoroazetidin-1-yl)-2-oxoethyl)-4-((4-hydroxybicyclo[2.2.2]octan-1-yl)amino) nicotinamide], the EC50 in the test with TNFα stood at 0.079 µM. For the same compound, at IRAK4 enzyme, the IC50 is less than 0.001 µM.
